The experiment addresses Bromodomain-containing protein 4 (Homo sapiens, UniProt O60885). Briefly: A mix consisting of 15 nM GST-BRD4-BD1 protein (aa 44-168) or 150 nM GST-BRD4-BD2 (aa 333-460) and 15 nM biotinylated Acetyl-Histone H4 (Lys5, 8, 12, 16) peptide is prepared in assay buffer (50 mM HEPES pH=7.4; 25 mM NaCl; 0.05% Tween 20; 0.1% bovine serum albumin (BSA); 10 mM dithiothreitol (DTT)). 6 μl of the mix is added to the compound dilutions. Subsequently, 6 μl of premixed AlphaLISA Glutathione Acceptor Beads and AlphaScreen Streptavidin Donor Beads from PerkinElmer (in assay buffer at a concentration of 10 μg/ml each) are added and the samples are incubated for 30 min at RT in the dark (shaking 300 rpm). Afterwards, the signal is measured in a PerkinElmer Envision HTS Multilabel Reader using the AlphaScreen protocol from PerkinElmer.Each plate contains negative controls where biotinylated Acetyl-Histone H4 peptide and GST-BRD4-BD1 or GST-BRD4-BD2 are left out and replaced by assay buffer. Negative control values are entered as low basis value when using the software GraphPad Prism for calculations. Furthermore, a positive control (probe molecule JQ1+ with protein/peptide mix) is pipetted. Determination of IC50 values are carried out using GraphPad Prism 3.03 software (or updates thereof).

Structures are written as SMILES.

One may read the IC50 as the point on the concentration scale where inhibition reaches its midpoint.

With `CNc1nc(-c2nn(C)c(C)c2Oc2ccccc2)cn2c(C)nnc12`, the 50% inhibitory concentration (IC50) is 8 nM.

The values above are taken from ChEMBL document CHEMBL5727121, “Substituted [1,2,4]triazolo[4,3-a]pyrazines as BRD4 inhibitors” (2019).
